In ChEMBL document CHEMBL3885861, “Open TG-GATES”:

Species: Rattus norvegicus
Assay: Open TG-GATES - Regimen: Single
Type: toxicity, organism-based, Sprague-Dawley
Design: regimen Single, gender Male, age 6 weeks
Details: in vivo, po, route gavage; for APTT / Bas / Eos / Fbg / Hb / Ht / Lym / MCH / MCHC / MCV / Mono / Neu / PT / Plat / RBC / Ret / WBC: tissue Blood; for KIDNEY_L / KIDNEY_R / KIDNEY_TOTAL: tissue Kidney; for LIVER: tissue Liver; for A/G / ALP / ALT / AST / BUN / CRE / Ca / Cl / DBIL / GLC / IP / K / LDH / Na / PL / RALB / TBIL / TC / TG / TP / gamma-GTP: tissue Plasma
[1] = 0 mg/kg, 3 h, dose level Control
[2] = 0 mg/kg, 6 h, dose level Control
[3] = 0 mg/kg, 9 h, dose level Control
[4] = 0 mg/kg, 24 h, dose level Control
[5] = 100 mg/kg, 24 h, dose level Low

## COc1ccc(Cl)cc1C(=O)NCCc1ccc(S(=O)(=O)NC(=O)NC2CCCCC2)cc1 [GLYBURIDE]
[1]
  TERMINAL_BW: 216 g
  APTT: 19.2 s
  Bas: 0%
  Eos: 1%
  Fbg: 221.2 mg/dL
  Hb: 13.2 g/dL
  Ht: 40.6%
  Lym: 70.4%
  MCH: 21 pg
  MCHC: 32.4%
  MCV: 64.7 fL
  Mono: 3%
  Neu: 24.4%
  PT: 12.3 s
  Plat: 125.5 x10_4/uL
  RBC: 628.8 x10_4/ul
  Ret: 8%
  WBC: 84.1 x10_2/uL
  KIDNEY_L: 1 g
  KIDNEY_R: 1 g
  KIDNEY_TOTAL: 1.9 g
  LIVER: 10.1 g
  A/G: 1.7
  ALP: 1085 IU/L
  ALT: 41.8 IU/L
  AST: 70.8 IU/L
  BUN: 11.8 mg/dL
  CRE: 0.4 mg/dL
  Ca: 11 mg/dL
  Cl: 104 meq/L
  DBIL: 0.2 mg/dL
  GLC: 191.6 mg/dL
  IP: 8.8 mg/dL
  K: 3.8 meq/L
  LDH: 166.6 IU/L
  Na: 141 meq/L
  PL: 187.6 mg/dL
  RALB: 3.5 g/dL
  TBIL: 0.2 mg/dL
  TC: 88 mg/dL
  TG: 160.2 mg/dL
  TP: 5.6 g/dL
  gamma-GTP: 0.8 IU/L
[2]
  TERMINAL_BW: 212.5 g
  APTT: 19.8 s
  Bas: 0%
  Eos: 1%
  Fbg: 228.6 mg/dL
  Hb: 13.6 g/dL
  Ht: 42.2%
  Lym: 70.2%
  MCH: 20.1 pg
  MCHC: 32.2%
  MCV: 62.4 fL
  Mono: 3.4%
  Neu: 24.2%
  PT: 12.5 s
  Plat: 122.5 x10_4/uL
  RBC: 676.8 x10_4/ul
  Ret: 7.8%
  WBC: 87.5 x10_2/uL
  KIDNEY_L: 1 g
  KIDNEY_R: 1 g
  KIDNEY_TOTAL: 2 g
  LIVER: 9.5 g
  A/G: 1.6
  ALP: 1140.4 IU/L
  ALT: 35 IU/L
  AST: 67.4 IU/L
  BUN: 8.8 mg/dL
  CRE: 0.4 mg/dL
  Ca: 10.9 mg/dL
  Cl: 103 meq/L
  DBIL: 0.092 mg/dL
  GLC: 207.2 mg/dL
  IP: 9.8 mg/dL
  K: 3.6 meq/L
  LDH: 159.4 IU/L
  Na: 141.2 meq/L
  PL: 148.6 mg/dL
  RALB: 3.5 g/dL
  TBIL: 0.2 mg/dL
  TC: 77.2 mg/dL
  TG: 65.2 mg/dL
  TP: 5.6 g/dL
  gamma-GTP: 1 IU/L
[3]
  TERMINAL_BW: 213.3 g
  APTT: 19.1 s
  Bas: 0%
  Eos: 1%
  Fbg: 220 mg/dL
  Hb: 13 g/dL
  Ht: 39.7%
  Lym: 77%
  MCH: 20.8 pg
  MCHC: 32.7%
  MCV: 63.6 fL
  Mono: 2.2%
  Neu: 18.8%
  PT: 12.7 s
  Plat: 133.8 x10_4/uL
  RBC: 625.4 x10_4/ul
  Ret: 8.1%
  WBC: 102.8 x10_2/uL
  KIDNEY_L: 0.9 g
  KIDNEY_R: 0.9 g
  KIDNEY_TOTAL: 1.9 g
  LIVER: 8.8 g
  A/G: 1.7
  ALP: 1066.8 IU/L
  ALT: 30.8 IU/L
  AST: 61.6 IU/L
  BUN: 10.8 mg/dL
  CRE: 0.4 mg/dL
  Ca: 10.1 mg/dL
  Cl: 102.2 meq/L
  DBIL: 0.09 mg/dL
  GLC: 216.2 mg/dL
  IP: 11.1 mg/dL
  K: 3.5 meq/L
  LDH: 125.8 IU/L
  Na: 140.8 meq/L
  PL: 137.4 mg/dL
  RALB: 3.4 g/dL
  TBIL: 0.1 mg/dL
  TC: 72.8 mg/dL
  TG: 52.2 mg/dL
  TP: 5.4 g/dL
  gamma-GTP: 1.6 IU/L
[4]
  TERMINAL_BW: 226.7 g
  APTT: 18.3 s
  Bas: 0.4%
  Eos: 1%
  Fbg: 218.6 mg/dL
  Hb: 13.2 g/dL
  Ht: 38%
  Lym: 77%
  MCH: 21.7 pg
  MCHC: 34.7%
  MCV: 62.4 fL
  Mono: 2.4%
  Neu: 18.6%
  PT: 12.5 s
  Plat: 126.2 x10_4/uL
  RBC: 609.6 x10_4/ul
  Ret: 7.7%
  WBC: 105.9 x10_2/uL
  KIDNEY_L: 1 g
  KIDNEY_R: 1 g
  KIDNEY_TOTAL: 2 g
  LIVER: 10.9 g
  A/G: 1.5
  ALP: 1024.2 IU/L
  ALT: 32.2 IU/L
  AST: 61.4 IU/L
  BUN: 16.4 mg/dL
  CRE: 0.4 mg/dL
  Ca: 10.7 mg/dL
  Cl: 102.2 meq/L
  DBIL: 0.1 mg/dL
  GLC: 215.6 mg/dL
  IP: 7.5 mg/dL
  K: 3.7 meq/L
  LDH: 189.6 IU/L
  Na: 141.2 meq/L
  PL: 146.2 mg/dL
  RALB: 3.3 g/dL
  TBIL: 0.2 mg/dL
  TC: 73.2 mg/dL
  TG: 97.8 mg/dL
  TP: 5.4 g/dL
  gamma-GTP: 1.4 IU/L
100 mg/kg, 3 h, dose level Low
  TERMINAL_BW: 218.6 g
  APTT: 19.3 s
  Bas: 0%
  Eos: 1%
  Fbg: 215.8 mg/dL
  Hb: 13.2 g/dL
  Ht: 41%
  Lym: 69.8%
  MCH: 20.2 pg
  MCHC: 32.3%
  MCV: 62.6 fL
  Mono: 2.8%
  Neu: 25.4%
  PT: 12.3 s
  Plat: 125.3 x10_4/uL
  RBC: 654.4 x10_4/ul
  Ret: 8.1%
  WBC: 93.1 x10_2/uL
  KIDNEY_L: 0.9 g
  KIDNEY_R: 1 g
  KIDNEY_TOTAL: 1.9 g
  LIVER: 9.7 g
  A/G: 1.6
  ALP: 990.2 IU/L
  ALT: 44.4 IU/L
  AST: 69.4 IU/L
  BUN: 12.8 mg/dL
  CRE: 0.4 mg/dL
  Ca: 10.7 mg/dL
  Cl: 103 meq/L
  DBIL: 0.1 mg/dL
  GLC: 141 mg/dL
  IP: 8.2 mg/dL
  K: 3.7 meq/L
  LDH: 145.6 IU/L
  Na: 140.8 meq/L
  PL: 174.8 mg/dL
  RALB: 3.5 g/dL
  TBIL: 0.2 mg/dL
  TC: 89.8 mg/dL
  TG: 87 mg/dL
  TP: 5.7 g/dL
  gamma-GTP: 1.4 IU/L
100 mg/kg, 6 h, dose level Low
  TERMINAL_BW: 214.4 g
  APTT: 19.6 s
  Bas: 0%
  Eos: 0.8%
  Fbg: 222.6 mg/dL
  Hb: 13.9 g/dL
  Ht: 42.5%
  Lym: 76.2%
  MCH: 20.6 pg
  MCHC: 32.6%
  MCV: 63.3 fL
  Mono: 2.8%
  Neu: 18.8%
  PT: 12.7 s
  Plat: 118.8 x10_4/uL
  RBC: 671.8 x10_4/ul
  Ret: 7.8%
  WBC: 101.9 x10_2/uL
  KIDNEY_L: 0.9 g
  KIDNEY_R: 0.9 g
  KIDNEY_TOTAL: 1.8 g
  LIVER: 9.3 g
  A/G: 1.7
  ALP: 837 IU/L
  ALT: 40.2 IU/L
  AST: 67.4 IU/L
  BUN: 13 mg/dL
  CRE: 0.4 mg/dL
  Ca: 10.7 mg/dL
  Cl: 104.4 meq/L
  DBIL: 0.098 mg/dL
  GLC: 168.6 mg/dL
  IP: 8.6 mg/dL
  K: 3.8 meq/L
  LDH: 136 IU/L
  Na: 141.8 meq/L
  PL: 145.2 mg/dL
  RALB: 3.5 g/dL
  TBIL: 0.2 mg/dL
  TC: 72.2 mg/dL
  TG: 64.8 mg/dL
  TP: 5.6 g/dL
  gamma-GTP: 1.2 IU/L
100 mg/kg, 9 h, dose level Low
  TERMINAL_BW: 211.4 g
  APTT: 19.7 s
  Bas: 0%
  Eos: 1%
  Fbg: 223.4 mg/dL
  Hb: 13.4 g/dL
  Ht: 41.4%
  Lym: 79.8%
  MCH: 20.5 pg
  MCHC: 32.5%
  MCV: 63.2 fL
  Mono: 3%
  Neu: 15.6%
  PT: 12.9 s
  Plat: 122.6 x10_4/uL
  RBC: 654.8 x10_4/ul
  Ret: 8.2%
  WBC: 77.5 x10_2/uL
  KIDNEY_L: 0.9 g
  KIDNEY_R: 0.9 g
  KIDNEY_TOTAL: 1.9 g
  LIVER: 8.7 g
  A/G: 1.6
  ALP: 982.4 IU/L
  ALT: 30.2 IU/L
  AST: 69.2 IU/L
  BUN: 12.4 mg/dL
  CRE: 0.4 mg/dL
  Ca: 10.3 mg/dL
  Cl: 104.2 meq/L
  DBIL: 0.084 mg/dL
  GLC: 153.8 mg/dL
  IP: 10.4 mg/dL
  K: 3.4 meq/L
  LDH: 136.6 IU/L
  Na: 142.4 meq/L
  PL: 143 mg/dL
  RALB: 3.4 g/dL
  TBIL: 0.1 mg/dL
  TC: 79.6 mg/dL
  TG: 42 mg/dL
  TP: 5.6 g/dL
  gamma-GTP: 1 IU/L
[5]
  TERMINAL_BW: 227.7 g
  APTT: 18.4 s
  Bas: 0.4%
  Eos: 1%
  Fbg: 211.8 mg/dL
  Hb: 13 g/dL
  Ht: 37.6%
  Lym: 76.8%
  MCH: 21.7 pg
  MCHC: 34.5%
  MCV: 62.9 fL
  Mono: 3.2%
  Neu: 18.8%
  PT: 13.1 s
  Plat: 119.3 x10_4/uL
  RBC: 599 x10_4/ul
  Ret: 7.1%
  WBC: 83.2 x10_2/uL
  KIDNEY_L: 1 g
  KIDNEY_R: 0.9 g
  KIDNEY_TOTAL: 1.9 g
  LIVER: 9.5 g
  A/G: 1.7
  ALP: 950.8 IU/L
  ALT: 35.4 IU/L
  AST: 68.4 IU/L
  BUN: 14.6 mg/dL
  CRE: 0.4 mg/dL
  Ca: 10.7 mg/dL
  Cl: 103.4 meq/L
  DBIL: 0.09 mg/dL
  GLC: 212.4 mg/dL
  IP: 7.9 mg/dL
  K: 3.5 meq/L
  LDH: 174.2 IU/L
  Na: 142.2 meq/L
  PL: 136 mg/dL
  RALB: 3.4 g/dL
  TBIL: 0.1 mg/dL
  TC: 72.2 mg/dL
  TG: 67.4 mg/dL
  TP: 5.4 g/dL
  gamma-GTP: 1.4 IU/L
